Earlier results as cited in US20090291152A1, “DIBENZOTHIAZEPINE DERIVATIVES” (Concert Pharmaceuticals Inc., priority 2006, published 2009).

Experiments:
[1] = patients with hepatic impairment
[2] = majority of the metabolites

## OCCOCCN1CCN(C2=Nc3ccccc3Sc3ccccc32)CC1 [quetiapine, 11-[4-[2-(2-Hydroxyethoxy)ethyl]piperazin-1-yl]dibenzo[b,f][1,4]thiazepine]
[1]
  increase in AUC: 3 fold
  increase in Cmax: 3 fold
[2]
  metabolites excreted in the urine: 73%
